In patent US20260159525A1, “TRICYCLIC HETEROCYCLES” (Merck Patent GmbH, priority 2021, published 2026):

Tests used:
Format in all cases: cell-based
[1] = system: YAP-TEAD interaction; test: SK-HEP-1 reporter assay (8x TEAD responsive elements driving NanoLuc luciferase); conditions: Homo sapiens, SK-HEP1, SK-HEP-1 cells, 24 hour incubation
How it was run: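 SK-HEP-1 cells carrying a stably integrated 8× TEAD-element NanoLuc reporter, seeded 24 h before dosing, were treated in duplicate with a 10-point dose series (top 30 μM final, 0.3% DMSO) for 24 h at 37°C, 5% CO2. Luciferase activity read by NanoGlo luminescence; IC50 derived from it.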

[2] = system: NCI-H226 cells; test: Viability assay in NCI-H226 (Yap-dependent) cells, CyQUANT; conditions: Homo sapiens, NCI-H226 YAP dependent cell line, 96 hour incubation, group symbols
Method: (§1) Viability Assay in NCI-H226 (Yap-Dependent) and SW620 Yap KO (Yap Independent) Cells
(§2) The ability of YAP-TEAD inhibitors to inhibit tumor cell growth was evaluated using two different cell lines: NCI-H226, which is a YAP dependent cell line, and SW620 cells, where YAP and TAZ were knocked out using CRISPR to generate a YAP independent cell line.
(§3) For the assay, cells were treated in duplicates with the test compounds in a 10-point dose, 1:3 dilution steps, with the top concentration starting at 30 μM (final concentration in assay). After a 96 hour incubation at 37° C., 95% rH, and 5% CO2, a cell-permeant DNA-binding dye that stains only healthy cells (CyQUANT®, Promega) was added to the cells, allowing the quantification of cell viability.
(§4) Cell Media: The NCI-H226 cells were cultured in the following media: RPMI 1640, +10% FBS, +1× GlutaMAX, +10 mM HEPES, +0.5% Pen/Strep. The SW620-KO cells were cultured in the following media: DMEM/F-12, +10% FBS, +1× GlutaMAX, +10 mM HEPES, +0.5% Pen/Strep.
(§5) Reagents: The reagents used are listed below:
(§6) Cell culture: The cells were examined using an inverted microscope to check for health, cell density, etc. To dissociate adherent cells, the monolayer of cells was washed once with pre-warmed PBS. After removing the PBS, 3 ml pre-warmed Accutase was added to a F75 flask, dispersed evenly and the flask was allowed to sit in incubator for ˜4-5 minutes.
(§7) When a single cell suspension was obtained, 7 ml of prewarmed growth media was added and resuspended with the cells. The cell suspension was transferred to a sterile 15 ml conical centrifuge tube, and spun for 5 min at 300×g, RT. The supernatant was discarded and the pellet was resuspended in 10 ml of pre-warmed growth media.
(§8) The total cell count was determined, and 20 μl of the desired cell number was added to each well of a 384 well plate using a Multidrop Combi. The plates were then incubated for 24 hours at 37° C., 95% rH, and 5% CO2.
(§9) Compound treatment: 24 hours after seeding, the cells were treated with compounds.
(§10) A 1:333 dilution of compounds, diluted in DMSO, was made to get a final concentration of 0.3% DMSO per well. To transfer the compounds to the assay plate, 120 nl was shot from Labcyte low dead volume plates to the cell plates containing 20 μl media/well with the ECHO 555 liquid handling system. After treatment, the cells were fed with 20 μl fresh pre-warmed assay media using a Multidrop combi.
(§11) The assay plates were then incubated for 96 h at 37° C., 95% rH, and 5% CO2.
(§12) 96 h after treatment 30 μl of CyQuant® reagent was added to the assay plates using a Multidrop combi in the dark. The plates were then incubated for 1 hour at 37° C., 95% rH and 5% CO2. Thereafter, the assay plates were removed from the incubator and allowed to equilibrate to RT for 30 min in the dark without lid. Finally, they were measured using an EnVision microplate reader with a FITC bottom read program.

[3] = system: SW620 Yap KO cells; test: Viability assay in SW620 Yap KO (Yap independent) cells, CyQUANT; conditions: Homo sapiens, SW-620, SW620 YAP and TAZ knocked out (YAP independent), 96 hour incubation
Method: as §1, §2, §3, §4, §5, §6, §7, §8, §9, §10, §11, §12

[4] = number, or n.d. (x) = not detectable below threshold x
[5] = n.d. (x) = not detectable below threshold x

Row | SMILES | IC50 [1, 4] [µM] | IC50 [2] [µM] | IC50 ([3]; group symbols) [µM] | IC50 ([1]; group symbols) [µM] | IC50 [3, 5] [µM]
1 | C[C@H](CO)NC(=O)c1cc2c3cn(C)nc3n(-c3ccc(C(F)(F)F)cn3)c2s1 [Compound 48, N-[(2R)-1-hydroxypropan-2-yl]-4-methyl-7-[5-(trifluoromethyl)pyridin-2-yl]-9-thia-4,5,7-triazatricyclo[6.3.0.0^2,6]undeca-1(8),2,5,10-tetraene-10-carboxamide] | > 30 | 0.001 to 0.1 | 10 to 30 | – | –
2 | Cn1nc2c3sc(C(=O)O)cc3n(-c3ccc(OC(F)(F)F)cc3)c2n1 [Compound 27, 4-methyl-7-[4-(trifluoromethoxy)phenyl]-11-thia-3,4,5,7-tetraazatricyclo[6.3.0.0^2,6]undeca-1(8),2,5,9-tetraene-10-carboxylic acid] | – | 0.1 to 1 | – | 0.01 to 0.1 | > 30
3 | C[C@@H](CO)NC(=O)c1cc2c3cn(C)nc3n(-c3ccc(C(F)(F)F)cc3)c2s1 [Compound 68, N-[(2S)-1-hydroxypropan-2-yl]-4-methyl-7-[4-(trifluoromethyl)phenyl]-9-thia-4,5,7-triazatricyclo[6.3.0.0^2,6]undeca-1(8),2,5,10-tetraene-10-carboxamide] | > 0.95 | 0.001 to 0.1 | – | – | > 3
4 | Cn1cc2c3cc(C(=O)N4CC[C@H](O)C4)sc3n(-c3ccc(C(F)(F)F)cc3)c2n1 [Compound 69, (3S)-1-{4-methyl-7-[4-(trifluoromethyl)phenyl]-9-thia-4,5,7-triazatricyclo[6.3.0.0^2,6]undeca-1(8),2,5,10-tetraene-10-carbonyl}pyrrolidin-3-ol] | > 30 | 0.001 to 0.1 | – | – | > 3.2
5 | Cn1cnc2c1c1sc(C(=O)O)cc1n2-c1ccc(C(F)(F)F)cc1 [Compound 20, 3-methyl-7-[4-(trifluoromethyl)phenyl]-11-thia-3,5,7-triazatricyclo[6.3.0.0^2,6]undeca-1(8),2(6),4,9-tetraene-10-carboxylic acid] | – | 0.1 to 1 | – | 0.01 to 0.1 | > 30
6 | Cn1cc2c3cc(C(=O)O)sc3n(-c3ccc(SC(F)(F)F)cc3)c2n1 [Compound 40, 4-methyl-7-{4-[(trifluoromethyl)sulfanyl]phenyl}-9-thia-4,5,7-triazatricyclo[6.3.0.0^2,6]undeca-1(8),2,5,10-tetraene-10-carboxylic acid] | – | 0.001 to 0.1 | – | 0.01 to 0.1 | > 30
7 | Cn1cc2c3cc(C(=O)N4CC[C@@H](O)C4)sc3n(-c3ccc(C(F)(F)F)cc3)c2n1 [Compound 67, (3R)-1-{4-methyl-7-[4-(trifluoromethyl)phenyl]-9-thia-4,5,7-triazatricyclo[6.3.0.0^2,6]undeca-1(8),2,5,10-tetraene-10-carbonyl}pyrrolidin-3-ol] | > 9.5 | 0.1 to 1 | – | – | > 3
8 | Cn1cc2c3cc(C(=O)N=[S@](C)(=O)CCCO)sc3n(-c3ccc(C(F)(F)F)cc3)c2n1 (single isomer, unassigned) [Compound 62] | > 0.3 | 0.1 to 1 | – | – | > 3
9 | Cn1cc2c3cc(C(=O)O)sc3n([C@H]3CC[C@H](C(F)(F)F)CC3)c2n1 [Compound 52, 4-methyl-7-[(1r,4r)-4-(trifluoromethyl)cyclohexyl]-9-thia-4,5,7-triazatricyclo[6.3.0.0^2,6]undeca-1(8),2,5,10-tetraene-10-carboxylic acid] | – | 0.001 to 0.1 | – | 0.01 to 0.1 | > 30
10 | Cn1cc2c3sc(C(=O)O)cc3n(-c3ccc(OC(F)F)cc3)c2n1 [Compound 10, 7-[4-(difluoromethoxy)phenyl]-10-methyl-3-thia-7,9,10-triazatricyclo[6.3.0.0^2,6]undeca-1(11),2(6),4,8-tetraene-4-carboxylic acid] | – | 0.1 to 1 | – | 0.01 to 0.1 | > 30
11 | Cn1cc2c3cc(C(=O)N[C@H](CCO)c4cncs4)sc3n(-c3ccc(C(F)(F)F)cc3)c2n1 (single isomer, unassigned) [Compound 42] | > 9.5 | 1 to 10 | 1 to 10 | – | –
12 | CNC(=O)c1cc2c3cn(C)nc3n(-c3ccc(OC(F)F)cn3)c2s1 [Compound 121, 7-[5-(difluoromethoxy)pyridin-2-yl]-N,4-dimethyl-9-thia-4,5,7-triazatricyclo[6.3.0.0^2,6]undeca-1(8),2,5,10-tetraene-10-carboxamide] | > 30 | 0.001 to 0.1 | – | – | > 30
13 | Cn1cc2c3cc(C(=O)NCCO)sc3n(-c3ccc(C(F)(F)F)cc3)c2n1 [Compound 64, N-(2-hydroxyethyl)-4-methyl-7-[4-(trifluoromethyl)phenyl]-9-thia-4,5,7-triazatricyclo[6.3.0.0^2,6]undeca-1(8),2,5,10-tetraene-10-carboxamide] | > 0.95 | 0.001 to 0.1 | – | – | > 3
14 | COCCC(CO)NC(=O)c1cc2c3cn(C)nc3n(-c3ccc(C(F)(F)F)cc3)c2s1 (racemic) [Compound 63, N-(1-hydroxy-4-methoxybutan-2-yl)-4-methyl-7-[4-(trifluoromethyl)phenyl]-9-thia-4,5,7-triazatricyclo[6.3.0.0^2,6]undeca-1(8),2,5,10-tetraene-10-carboxamide] | > 9.5 | 0.001 to 0.1 | – | – | > 3
15 | Cn1cc2c3cc(C(=O)O)sc3n(-c3ccc(OC(F)(F)F)cn3)c2n1 [Compound 118, 4-methyl-7-[5-(trifluoromethoxy)pyridin-2-yl]-9-thia-4,5,7-triazatricyclo[6.3.0.0^2,6]undeca-1(8),2,5,10-tetraene-10-carboxylic acid] | – | 0.1 to 1 | – | 0.01 to 0.1 | > 30
16 | Cn1ccc([C@@H](CO)NC(=O)c2cc3c4cn(C)nc4n(-c4ccc(C(F)(F)F)cc4)c3s2)n1 (single isomer, unassigned) [Compound 130] | – | 0.001 to 0.1 | – | 0.01 to 0.1 | > 30
17 | CC[C@@H](CO)NC(=O)c1cc2c3cn(C)nc3n(-c3ccc(C(F)(F)F)cc3)c2s1 [Compound 92, N-[(2S)-1-hydroxybutan-2-yl]-4-methyl-7-[4-(trifluoromethyl)phenyl]-9-thia-4,5,7-triazatricyclo[6.3.0.0^2,6]undeca-1(8),2,5,10-tetraene-10-carboxamide] | > 30 | 0.1 to 1 | – | – | > 3
18 | Cn1cc2c3cc(-c4noc(=O)[nH]4)sc3n(-c3ccc(C(F)(F)F)cc3)c2n1 [Compound 80, 3-{4-methyl-7-[4-(trifluoromethyl)phenyl]-9-thia-4,5,7-triazatricyclo[6.3.0.0^2,6]undeca-1(8),2,5,10-tetraen-10-yl}-4,5-dihydro-1,2,4-oxadiazol-5-one] | > 30 | 0.1 to 1 | – | – | > 30
19 | Cn1cc2c3cc(C(=O)NCC(O)CO)sc3n(-c3ccc(C(F)(F)F)cc3)c2n1 (stereo not drawn) [Compound 97, N-(2,3-dihydroxypropyl)-4-methyl-7-[4-(trifluoromethyl)phenyl]-9-thia-4,5,7-triazatricyclo[6.3.0.0^2,6]undeca-1(8),2,5,10-tetraene-10-carboxamide] | – | 0.1 to 1 | – | 0.001 to 0.01 | > 30
20 | Cn1cc2c3cc(C(=O)NCc4ccncc4)sc3n(-c3ccc(C(F)(F)F)cc3)c2n1 [Compound 31, 4-methyl-N-[(pyridin-4-yl)methyl]-7-[4-(trifluoromethyl)phenyl]-9-thia-4,5,7-triazatricyclo[6.3.0.0^2,6]undeca-1(8),2,5,10-tetraene-10-carboxamide] | – | 0.001 to 0.1 | – | > 10 | > 3.2
